# What was measured:
# [1] = test system: blood brain barrier (BBB) vascular permeability; Aquaporin 4 (AQP-4); conditions: cited from earlier work
# [2] = test system: neutrophil oxidative burst in leukocytes isolated from brain tissue; assay: Oxidative burst (ROS, DHR 123 fluorescence by flow cytometry) in leukocytes isolated from brain tissue after mild brain injury by controlled cortical impact; type: in vivo, C57/B6 mice; conditions: for Oxidative burst in inflammatory cells following mBI (flow cytometry peak shift, FIG. 2): subcutaneous ghrelin, compared to untreated mBI, n=3 animals in each group
# Experimental: FIG. 1 depicts principle of assaying oxidative burst within inflammatory cells. Dihydrorhodamine 123 (DHR 123) diffuses across the cell membrane. When it encounters reactive oxygen species (ROS), DHR 123 is oxidized and fluoresces green. The fluorescence is then measured and presented as arbitrary fluorescence unit (AFU), wherein higher intensity means greater oxidative burst and, therefore greater concentration of amount of ROS (See Chen, et al., Measurement of oxidative burst in neutrophils,” Methods Mol Biol., 844: 115-124 (2012); which is incorporated herein by reference in its entirety).
# Ghrelin administration reduces oxidative burst in inflammatory cells following mBI. Since no well-accepted animal model exists for concussions, a very small cerebral lesion that closely mimics mBI is used as a model of mBI. C57/B6 mice anesthetized with 5% isoflurane in oxygen (1.7 L/min) are given 0.3 mg/kg buprenorphine subcutaneously for analgesia prior to infliction of the mild brain injury. Anesthesia is assessed by paw pinch reflex. After creating a burr hole through the dura with a dental drill, a lesion using a controlled cortical impactor (CCI) is used to create injury 1 mm lateral and posterior to the bregma (5.0 mm/sec at a depth of 1.0 mm).
# Animals are separated into three treatment groups: 1) Sham, 2) mBI, and 3) mBI plus ghrelin. A variety of doses can be tested depending upon the particular ghrelin. Ghrelin can be obtained for example from Phoenix Pharmaceuticals, Inc. (Burlingame, Calif.). For example, 1 to 50 μg at one or more time points. As one example, treatment with subcutaneous ghrelin: 1 dose of 10 μg following mBI and additional dose 10 μg 1 hour after. Brain tissue is harvested at 2-8 hours, preferably about 6 hours post-injury. […] The fluorescence is then measured and presented as arbitrary fluorescence unit (AFU), wherein higher intensity means greater oxidative burst and, therefore greater concentration or amount of ROS. […] Oxidative burst, which is a marker for ROS, can be measured by flow cytometry (e.g., FL1 channel with 488-nm laser).
substance,measurement,setting,value
"Gly-Ser-Ser-Phe-Leu-Ser-Pro-Glu-His-Gln-Arg-Val-Gln-Gln-Arg-Lys-Glu-Ser-Lys-Lys-Pro-Pro-Ala-Lys-Leu-Gln-Pro-Arg (GSSFLSPEHQRVQQRKESKKPPAKLQPR; printed: Gly-Ser-Ser-Phe-Leu-Ser-Pro-Glu-His-Gln-Arg-Val-Gln-Gln-Arg-Lys-Glu-Ser-Lys-Lys-Pro-Pro-Ala-Lys-Leu-Gln-Pro-Arg) [ghrelin, 28-amino acid peptide neuroendocrine hormone, endogenous ligand for growth hormone secretagogue receptor; can include octanoyl acylation; obtainable from Phoenix Pharmaceuticals]",Post-TBI up-regulation of Aquaporin 4 (AQP-4),[1],prevents post-TBI up-regulation of Aquaporin 4
same,Oxidative burst of ipsilateral whole brain following mild BI (mean fluorescence intensity),"[2]; mild BI + ghrelin (2 doses), subcutaneous 10 μg following mBI and 10 μg 1 hour after, vs 7963±2900 mild BI alone and 4624±1858 sham, p-value of 0.048, n=5",3257 AFU
same,"Oxidative burst in inflammatory cells following mBI (flow cytometry peak shift, FIG. 2)",[2],lower oxidative burst
same,"Oxidative burst in inflammatory cells following mBI (flow cytometry peak shift, FIG. 2)",[2]; listed as Ghrelin,reduced the oxidative burst

# From US20180028617A1, “METHODS OF TREATING MILD BRAIN INJURY AND POST-TRAUMATIC STRESS DISORDER” (The Regents of the University of California, priority 2015, published 2018)
